Reference: PubChem BioAssay AID200 (DTP/NCI, 2004)
Where “and” joins values, the source holds several entries; their conditions need not be identical. Identical values can stand only once. Inconclusive results and toxic doses are left out.

System: B6C3F1 mice, B16 melanoma ip, median survival T/C
Experiment: NCI In Vivo Anticancer Drug Screen. Data for tumor model B16 Melanoma (intraperitoneal) in B6C3F1 mice
Conditions: endpoint: median survival time, schedule: Q01DX009 (ip), higher = longer survival
Method in brief: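 Tumor-bearing mice received test compound; a separate group got vehicle only. Survival was then compared, with results reported as treated over control.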

[1] = dose: 12.5 mg/kg/injection, vehicle: saline with Tween-80
[2] = dose: 25.0 mg/kg/injection, vehicle: saline with Tween-80
[3] = dose: 50.0 mg/kg/injection, vehicle: saline with Tween-80
[4] = dose: 100.0 mg/kg/injection, vehicle: saline with Tween-80
[5] = dose: 25.0 mg/kg/injection, vehicle: Klucel (hydroxypropylcellulose) (HPC)
[6] = dose: 50.0 mg/kg/injection, vehicle: Klucel (hydroxypropylcellulose) (HPC)
[7] = dose: 100.0 mg/kg/injection, vehicle: Klucel (hydroxypropylcellulose) (HPC)
[8] = dose: 12.5 mg/kg/injection, vehicle: saline
[9] = dose: 25.0 mg/kg/injection, vehicle: saline
[10] = dose: 50.0 mg/kg/injection, vehicle: saline
[11] = dose: 100.0 mg/kg/injection, vehicle: saline
[12] = dose: 3.12 mg/kg/injection, vehicle: saline
[13] = dose: 6.25 mg/kg/injection, vehicle: saline
[14] = dose: 200.0 mg/kg/injection, vehicle: saline with Tween-80
[15] = dose: 400.0 mg/kg/injection, vehicle: saline with Tween-80

CC(=O)O[C@H]1C(=O)[C@@]2(C)C(C(OC(=O)c3ccccc3)[C@]3(O)CC(OC(=O)[C@H](OC(=O)CCC(=O)O)C(NC(=O)c4ccccc4)c4ccccc4)C(C)=C1C3(C)C)C1(OC(C)=O)COC1C[C@@H]2O (stereo not given in full)
T/C (dose: 1.25 mg/kg/injection, vehicle: water): 111 % of control | T/C (dose: 2.5 mg/kg/injection, vehicle: sodium bicarbonate): 119 % of control | T/C (dose: 2.5 mg/kg/injection, vehicle: water): 159 % of control | T/C (dose: 5.0 mg/kg/injection, vehicle: sodium bicarbonate): 154 % of control | T/C (dose: 5.0 mg/kg/injection, vehicle: water): 166 % of control | T/C (dose: 10.0 mg/kg/injection, vehicle: sodium bicarbonate): 159 % of control | T/C (dose: 10.0 mg/kg/injection, vehicle: water): 160 % of control and 183 % of control | T/C (dose: 20.0 mg/kg/injection, vehicle: sodium bicarbonate): 154 % of control | T/C (dose: 20.0 mg/kg/injection, vehicle: water): 160 % of control and 201 % of control | T/C (dose: 40.0 mg/kg/injection, vehicle: sodium bicarbonate): 185 % of control | T/C (dose: 40.0 mg/kg/injection, vehicle: water): 177 % of control and 218 % of control

Nc1nc2c(C(=O)N3CCCC3)nnn2c2ccccc12
T/C (dose: 6.25 mg/kg/injection, vehicle: saline with Tween-80): 118 % of control | T/C [1]: 104 % of control | T/C [2]: 122 % of control | T/C [3]: 107 % of control | T/C [4]: 102 % of control

CNC(=S)C#N
T/C (dose: 12.5 mg/kg/injection, vehicle: saline + Tween-80 + alcohol): 119 % of control | T/C (dose: 25.0 mg/kg/injection, vehicle: saline + Tween-80 + alcohol): 86 % of control

Nc1ncnc2c1nnn2C1OC(CO)C(O)C1O (stereo not given)
T/C (dose: 6.0 mg/kg/injection, vehicle: Klucel (hydroxypropylcellulose) (HPC)): 113 % of control | T/C (dose: 12.0 mg/kg/injection, vehicle: Klucel (hydroxypropylcellulose) (HPC)): 115 % of control | T/C [5]: 176 % of control

CC(C)(C)SCC(NC(=O)OCC1c2ccccc2-c2ccccc21)C(=O)O (stereo not given)
T/C [5]: 91 % of control | T/C [6]: 97 % of control | T/C [7]: 91 % of control and 92 % of control

O=S(=O)(O)c1cc(N=C=S)ccc1/C=C/c1ccc(N=C=S)cc1S(=O)(=O)O
T/C [8]: 96 % of control | T/C [9]: 95 % of control | T/C [10]: 91 % of control | T/C [11]: 86 % of control

C[CH2][Sn]([CH2]C)([O]S(C)(=O)=O)[O]S(C)(=O)=O
T/C (dose: 0.78 mg/kg/injection, vehicle: saline): 92 % of control | T/C (dose: 0.79 mg/kg/injection, vehicle: saline): 102 % of control | T/C (dose: 1.56 mg/kg/injection, vehicle: saline): 98 % of control and 103 % of control | T/C [12]: 97 % of control and 103 % of control | T/C [13]: 108 % of control and 96 % of control | T/C [8]: 91 % of control and 99 % of control

O=S(CCCl)CCCl
T/C (dose: 6.25 mg/kg/injection, vehicle: Klucel (hydroxypropylcellulose) (HPC)): 96 % of control and 107 % of control | T/C (dose: 12.5 mg/kg/injection, vehicle: Klucel (hydroxypropylcellulose) (HPC)): 98 % of control and 101 % of control | T/C [5]: 98 % of control and 107 % of control | T/C [6]: 89 % of control and 96 % of control

CC(O)C(NC(=O)OC(C)(C)C)C(=O)O (stereo not given)
T/C [9]: 86 % of control and 100 % of control | T/C [10]: 108 % of control and 106 % of control | T/C [11]: 108 % of control and 100 % of control | T/C (dose: 200.0 mg/kg/injection, vehicle: saline): 95 % of control

CC(=O)Oc1c[nH]c(=O)[nH]c1=O
T/C (dose: 12.5 mg/kg/injection, vehicle: distilled water + Tween-80): 99 % of control | T/C [1]: 97 % of control | T/C (dose: 25.0 mg/kg/injection, vehicle: distilled water + Tween-80): 103 % of control | T/C [2]: 98 % of control | T/C (dose: 50.0 mg/kg/injection, vehicle: distilled water + Tween-80): 103 % of control | T/C [3]: 98 % of control | T/C (dose: 100.0 mg/kg/injection, vehicle: distilled water + Tween-80): 102 % of control | T/C [4]: 90 % of control | T/C (dose: 200.0 mg/kg/injection, vehicle: distilled water + Tween-80): 98 % of control | T/C [14]: 95 % of control | T/C (dose: 400.0 mg/kg/injection, vehicle: distilled water + Tween-80): 92 % of control | T/C [15]: 98 % of control

O=[N+]([O-])c1ccc(-n2[nH]nnc2=S)cc1
T/C [1]: 100 % of control and 101 % of control | T/C [2]: 101 % of control and 103 % of control | T/C [3]: 95 % of control | T/C [4]: 93 % of control and 100 % of control | T/C [14]: 88 % of control and 92 % of control

COC(=O)C12OCC34C(CC5C(C)C6=CC(=O)OC6=CC5(C)C3C(O)C1O)OC(=O)C(O)C24 (stereo not given)
T/C (dose: 0.5 mg/kg/injection, vehicle: Klucel (hydroxypropylcellulose) (HPC)): 154 % of control | T/C (dose: 180.0 micrograms/kg/injection, vehicle: Klucel (hydroxypropylcellulose) (HPC)): 116 % of control | T/C (dose: 833.3 micrograms/kg/injection, vehicle: Klucel (hydroxypropylcellulose) (HPC)): 153 % of control | T/C (dose: 1388.8 micrograms/kg/injection, vehicle: Klucel (hydroxypropylcellulose) (HPC)): 178 % of control

COC(C(=O)C(O)C(C)O)C1Cc2cc3cc(OC4CC(OC(C)=O)C(OC5CC(O)C(OC)C(C)O5)C(C)O4)cc(O)c3c(O)c2C(=O)C1OC1CC(OC2CC(OC3CC(C)(O)C(OC(=O)C(C)C)C(C)O3)C(O)C(C)O2)C(O)C(C)O1 (stereo not given)
T/C (dose: 0.5 mg/kg/injection, vehicle: saline with Tween-80): 158 % of control | T/C (dose: 1.0 mg/kg/injection, vehicle: saline with Tween-80): 170 % of control

CS(=O)(=O)Nc1ccc(C(=O)CCN2CCCCCC2)cc1
T/C (dose: 25.0 mg/kg/injection, vehicle: suspension in saline): 122 % of control | T/C (dose: 50.0 mg/kg/injection, vehicle: suspension in saline): 98 % of control | T/C (dose: 100.0 mg/kg/injection, vehicle: suspension in saline): 96 % of control | T/C (dose: 200.0 mg/kg/injection, vehicle: suspension in saline): 92 % of control

CC(C)(C)OC(=O)NC(Cc1c[nH]c2ccccc12)C(=O)O (stereo not given)
T/C (dose: 100.0 mg/kg/injection, vehicle: distilled water + alcohol): 94 % of control | T/C (dose: 200.0 mg/kg/injection, vehicle: distilled water + alcohol): 94 % of control

Nc1nc(SCc2ccccc2)c2ncn(C3OC(CO)CC3O)c2n1 (stereo not given)
T/C [6]: 116 % of control | T/C [7]: 107 % of control

N#CCCCCCCCCCCC(=O)O
T/C [4]: 93 % of control | T/C [14]: 96 % of control | T/C [15]: 99 % of control

CCN(CC)CCNc1ccc(C)c2sc3ccc(O)cc3c(=O)c12
T/C [3]: 150 % of control | T/C [4]: 191 % of control

NC(N)=N/N=C/c1ccc(Cl)cc1Cl
T/C [9]: 100 % of control | T/C [10]: 89 % of control | T/C [11]: 95 % of control

CC(=O)OCC1OC(n2cc(CBr)nn2)C(OC(C)=O)C(OC(C)=O)C1OC(C)=O (stereo not given)
T/C [12]: 100 % of control | T/C [13]: 103 % of control | T/C [8]: 102 % of control | T/C [9]: 113 % of control and 114 % of control | T/C [10]: 117 % of control and 119 % of control | T/C [11]: 105 % of control

CNc1cccnc1/C=N/NC(N)=S
T/C [1]: 119 % of control | T/C [3]: 159 % of control | T/C [4]: 151 % of control
